Reference: patent US6620961B1, “Biarylalkylenecarbamic acid derivatives and bacteriocides for agricultural and horticultural use” (Kumiai Chemical Industry Co., Ltd., priority 1997, dated 2003)

Experiments:
Format in all cases: in vivo
Set-up in all cases: key: A: No diseased area; B: Diseased area of less than 25%; C: Diseased area of at least 25% but less than 50%; Diseased area of at least 50%
[1] = system: Pseudoperonospora cubensis; experiment: Test for Preventive Effect on Cucumber Downy Mildew; conditions: cucumber seedlings, wettable powder at 500 ppm active ingredient, 7 days after inoculation
Procedure: Test for Preventive Effect on Cucumber Downy Mildew 9 cucumber seeds (variety: Sagami-hanpaku) were sown in each 9 cmx9 cm polyvinyl chloride pot and grown in a greenhouse for 7 days. […] Then, the seedlings were inoculated with Pseudoperonospora cubensis zoosporangia in suspension by spraying and immediately placed in a moist chamber at 22° C. for 24 hours. Thereafter, the seedlings were placed in a greenhouse. 7 days after the inoculation, the total diseased area in each pot was observed and evaluated on the basis of the standards shown in Table 59. [table]

Venturia inaequalis = experiment: Test for Preventive Effect on Apple Scab; conditions: 14 days after inoculation; for Evaluation (diseased area of the upper two inoculated leaves): apple seedlings (Kogyoku), 500 ppm active ingredient, 20 ml per pot; for Evaluation (diseased areas of the upper two of the inoculated leaves): apple seedlings, wettable powder at 500 ppm active ingredient, preventive
Procedure: [table] Test for Preventive Effect on Apple Scab 5 apple seeds (variety: Kogyoku) were sown in each 9 cm×9 cm polyvinyl chloride pot and grown in a greenhouse for 20 days. […] Then, the seedlings were inoculated with Venturia inaequalis spores in suspension by spraying and immediately placed in a moist chamber at 22° C. for 48 hours. Thereafter, the seedlings were placed in a greenhouse for development of the disease. 14 days after the inoculation, the diseased areas of the upper two of the inoculated leaves were observed and evaluated on the basis of the standards shown in Table 59.

Erysiphe graminis = experiment: Test for Preventive Effect on Wheat Powdery Mildew; conditions: wheat seedlings (Norin-61-go), 500 ppm active ingredient, 10 ml per pot, 10 days after inoculation
Procedure: [table] Test for Preventive Effect on Wheat Powdery Mildew 9 wheat seeds (variety: […] Then, the seedlings were inoculated with […] graminis spores in suspension and placed in a greenhouse at 25 to 30° C. 10 days after the inoculation, the total diseases area of the first leaves in each pot was observed and evaluated on the basis of the standards shown in Table 59. The results are shown in Tables 67 to 71.

Row | Structure (SMILES) | Evaluation (total diseased area in each pot) [1] | Evaluation (diseased area of the upper two inoculated leaves) (Venturia inaequalis) | Evaluation (total diseased area of the first leaves in each pot) (Erysiphe graminis) | Evaluation (diseased areas of the upper two of the inoculated leaves) (Venturia inaequalis)
1 | COC(=O)NC(C)c1cccc(-c2ccccc2)c1 (racemic) [3-1] | A | A | B (Diseased area of less than 25%) | 
2 | COC(=O)NC(C)c1cccc(-c2cccc(C)c2)c1 (racemic) [3-6] | A | A | A | 
3 | COC(=O)NC(C)c1cccc(-c2cccc(C(F)(F)F)c2)c1 (racemic) [3-16] | A | A | A | 
4 | COC(=O)NC(C)c1cccc(-c2ccc(F)c(Cl)c2)c1 (racemic) [3-21] | A | A | B (Diseased area of less than 25%) | 
5 | COC(=O)NCc1cccc(-c2cccc(Cl)c2)c1 [1-3] | A |  | A | A
6 | COC(=O)NCc1cccc(-c2ccc(F)cc2)c1 [1-7] | B (Diseased area of less than 25%) |  | A | A
7 | COC(=O)NCc1cccc(-c2ccccc2C(F)(F)F)c1 [1-33] | B (Diseased area of less than 25%) |  | A | A
8 | COC(=O)NCc1cccc(-c2cccc(C(F)(F)F)c2)c1 [1-34] | A |  | A | A
9 | COC(=O)NCc1cccc(-c2cccc(OC)c2)c1 [1-41] | A |  | A | A
10 | COC(=O)NCc1cccc(-c2cccc([N+](=O)[O-])c2)c1 [1-103] | B (Diseased area of less than 25%) |  |  | A
11 | COC(=O)NCc1cccc(-c2ccc(Cl)c(Cl)c2)c1 [1-118, Methyl N-[3-(3,4-dichlorophenyl)benzyl]carbamate] | B (Diseased area of less than 25%) |  | A | A
12 | COC(=O)NCc1cccc(-c2cc(Cl)cc(Cl)c2)c1 [1-119] | B (Diseased area of less than 25%) |  | A | A
13 | COC(=O)NCc1cccc(-c2ccc(C)c(C)c2)c1 [1-125] | A |  | A | A
14 | COCN(Cc1cccc(-c2ccccc2Cl)c1)C(=O)OC [1-202] |  |  | A | A
15 | CNC(=O)NCc1cccc(-c2ccccc2)c1 [1-253] | B (Diseased area of less than 25%) |  |  | 
16 | COC(=O)N(Cc1cccc(-c2ccccc2)c1)OC [1-264] |  |  | A | A
17 | COC(=O)N(Cc1cccc(-c2cccc(C)c2)c1)OC [1-266] | B (Diseased area of less than 25%) |  | A | A
18 | COC(=O)N(Cc1cccc(-c2cccc(Cl)c2)c1)OC [1-275] |  |  | A | A
19 | COC(=O)N(Cc1cccc(-c2cccc(C(F)(F)F)c2)c1)OC [1-277] |  |  | A | A

Row | Structure (SMILES) | Evaluation (total diseased area in each pot) [1] | Evaluation (diseased area of the upper two inoculated leaves) (Venturia inaequalis) | Evaluation (total diseased area of the first leaves in each pot) (Erysiphe graminis) | Evaluation (diseased areas of the upper two of the inoculated leaves) (Venturia inaequalis)
20 | COC(=O)NCc1ccc(F)c(-c2ccccc2)c1 [2-17] |  |  | B (Diseased area of less than 25%) | A
21 | COC(=O)NCc1ccc(F)c(-c2ccc(Cl)cc2)c1 [2-21] |  |  | B (Diseased area of less than 25%) | A
22 | COC(=O)NCc1ccc(F)c(-c2cccc(C)c2)c1 [2-22] |  |  | B (Diseased area of less than 25%) | A
23 | COC(=O)NCc1cc(C)cc(-c2ccccc2)c1 [2-91] | B (Diseased area of less than 25%) |  | A | A
24 | COC(=O)NCc1cc(C)cc(-c2ccc(Cl)cc2)c1 [2-95] |  |  | A | A
25 | COC(=O)NCc1cc(C)cc(-c2ccc(C)cc2)c1 [2-97] |  |  | A | A
26 | COC(=O)NCc1cc(C)cc(-c2cccc(C(F)(F)F)c2)c1 [2-98] | B (Diseased area of less than 25%) |  | A | A
27 | COC(=O)NCc1cc(-c2ccccc2)ccc1F [2-102] | A |  | A | A
28 | COC(=O)NCc1cc(-c2cccc(Cl)c2)ccc1F [2-106] | A |  | A | A
29 | COC(=O)NCc1cc(-c2ccc(Cl)cc2)ccc1F [2-107] | A |  | A | A
30 | CCc1ccc(-c2ccc(F)c(CNC(=O)OC)c2)cc1 [2-112] |  |  | B (Diseased area of less than 25%) | A
31 | COC(=O)NCc1cc(-c2ccc(C(C)C)cc2)ccc1F [2-114] |  |  | A | A
32 | COC(=O)NCc1cc(-c2cccc(C(F)(F)F)c2)ccc1OC(F)F [2-365] |  | A | B (Diseased area of less than 25%) | 
33 | COC(=O)NCc1cc(-c2ccc(F)c(F)c2)ccc1F [2-412] |  | A | A | 
34 | COC(=O)NCc1cc(-c2ccc(F)c(F)c2)ccc1Cl [2-461] |  | A | A | 
35 | COC(=O)NCc1cc(-c2ccc(F)c(Cl)c2)ccc1Cl [2-465] |  | A | A | 
36 | COC(=O)N(Cc1cccc(-c2ccccc2)c1C)OC [4-22, Methyl N-methoxy-N-(2-methyl-3-phenylbenzyl)carbamate] |  | A | A | 
37 | COC(=O)NCc1cccc(-c2ccc3ccccc3c2C)c1 [6-1] |  | A | B (Diseased area of less than 25%) | 
